Reference: paper PMC10058641 (Molecular cell, 2022)

T1: COQ7 (His6-GB1-Nd38COQ7) (Homo sapiens, UniProt Q99807)
T1 sequence (Q99807 39-217): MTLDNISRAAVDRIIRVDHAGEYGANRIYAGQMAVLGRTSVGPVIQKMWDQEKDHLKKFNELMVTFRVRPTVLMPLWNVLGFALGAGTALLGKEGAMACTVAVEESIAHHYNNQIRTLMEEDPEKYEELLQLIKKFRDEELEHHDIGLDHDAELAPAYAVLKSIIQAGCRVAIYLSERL

T2: His6-Nd79COQ9 (human COQ9 residues 79-318 with an N-terminal His tag) (human, UniProt O75208 79-318)
T2 sequence (looked up): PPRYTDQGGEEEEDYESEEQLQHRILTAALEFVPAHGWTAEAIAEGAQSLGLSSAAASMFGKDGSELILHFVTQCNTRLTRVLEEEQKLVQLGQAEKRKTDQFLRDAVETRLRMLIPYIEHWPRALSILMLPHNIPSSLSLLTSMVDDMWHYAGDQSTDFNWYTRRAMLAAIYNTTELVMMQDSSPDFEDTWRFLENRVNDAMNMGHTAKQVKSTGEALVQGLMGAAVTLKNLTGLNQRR


Columns and labels:
COQ7 (His6-GB1-Nd38COQ7) = target: T1, COQ7 (His6-GB1-Nd38COQ7); experiment: NADH fluorescence loss; format: biochemical; conditions: 250 uM DMQ0, 5 uM protein, 20 mM HEPES pH 7.6, 200 mM NaCl, 30 °C
[1] = target: T2, His6-Nd79COQ9 (human COQ9 residues …); experiment: SEC + native gel or EMSA

stoichiometry N [1] | Molecule | NADH oxidation (COQ7 (His6-GB1-Nd38COQ7))
– | NC(=O)C1=CN([C@@H]2O[C@H](COP(=O)(O)OP(=O)(O)OC[C@H]3O[C@@H](n4cnc5c(N)ncnc54)[C@H](O)[C@@H]3O)[C@@H](O)[C@H]2O)C=CC1 [NADH] | wild type COQ7 slowly oxidized NADH and transferred electrons to a quinone acceptor
1 | GB1-Nd38COQ7 (human COQ7 residues 39-217 with N-terminal GB1 tag) (enzyme, UniProt Q99807 39-217, looked up) MTLDNISRAAVDRIIRVDHAGEYGANRIYAGQMAVLGRTSVGPVIQKMWDQEKDHLKKFNELMVTFRVRPTVLMPLWNVLGFALGAGTALLGKEGAMACTVAVEESIAHHYNNQIRTLMEEDPEKYEELLQLIKKFRDEELEHHDIGLDHDAELAPAYAVLKSIIQAGCRVAIYLSERL | –
